Experimental data as given in ChEMBL document CHEMBL1122862, “Synthesis and antibacterial activity of 2,2'-dithiobis(benzamide) derivatives against Mycobacterium species” (1985).
Values after ≈ are worked out from the molar mass of the structure shown.

Columns and labels:
Format in all cases: functional
[1] = tested on: Mycobacterium tuberculosis; test: Tested for antibacterial activity against Mycobacterium tuberculosis H37Rv isonicotinic acid hydrazide-resistant strain
[2] = tested on: Mycobacterium tuberculosis; test: Tested for antibacterial activity against Mycobacterium tuberculosis H37Rv kanamycin resistant strain
[3] = tested on: Mycobacterium tuberculosis; test: Tested for antibacterial activity against Mycobacterium tuberculosis H37Rv streptomycin resistant strain

| SMILES | MIC [1] | MIC [2] | MIC [3] |
| --- | --- | --- | --- |
| CN[C@@H]1[C@H](O[C@H]2[C@H](O[C@H]3[C@H](O)[C@@H](O)[C@H](N=C(N)N)[C@@H](O)[C@@H]3N=C(N)N)O[C@@H](C)[C@]2(O)C=O)O[C@@H](CO)[C@H](O[C@@H]2O[C@H](CO)[C@@H](O)[C@H](O)[C@@H]2O)[C@H]1O | 0.78 µg/mL (≈ 1.05 µM) | 3.13 µg/mL (≈ 4.21 µM) | > 100 µg/mL |
| CCCCCC(=O)OCCCNC(=O)c1ccccc1SSc1ccccc1C(=O)NCCCOC(=O)CCCCC | 3.13 µg/mL (≈ 5.07 µM) | 3.13 µg/mL (≈ 5.07 µM) | 3.13 µg/mL (≈ 5.07 µM) |
| CCOC(=O)CNC(=O)c1ccccc1SSc1ccccc1C(=O)NCC(=O)OCC | 12.5 µg/mL (≈ 26.2 µM) | 25 µg/mL (≈ 52.5 µM) | 12.5 µg/mL (≈ 26.2 µM) |
| CCCCc1ccc(NC(=O)c2ccccc2SSc2ccccc2C(=O)Nc2ccc(CCCC)cc2)cc1 | 0.78 µg/mL (≈ 1.37 µM) | 1.56 µg/mL (≈ 2.74 µM) | 1.56 µg/mL (≈ 2.74 µM) |
| O=C(NCC(O)c1ccc(O)c(O)c1)c1ccccc1SSc1ccccc1C(=O)NCC(O)c1ccc(O)c(O)c1 (centres undefined) | 100 µg/mL (≈ 164 µM) | 100 µg/mL (≈ 164 µM) | > 100 µg/mL |
| O=C(Nc1cccc(C(F)(F)F)c1)c1ccccc1SSc1ccccc1C(=O)Nc1cccc(C(F)(F)F)c1 | 3.13 µg/mL (≈ 5.28 µM) | 6.25 µg/mL (≈ 10.5 µM) | 3.13 µg/mL (≈ 5.28 µM) |
| O=C1c2ccccc2S(=O)(=O)N1CO | > 100 µg/mL | > 100 µg/mL | 100 µg/mL (≈ 469 µM) |
| O=C(NCc1cccc2ccccc12)c1ccccc1SSc1ccccc1C(=O)NCc1cccc2ccccc12 | > 100 µg/mL | > 100 µg/mL | > 100 µg/mL |
| O=C(Nc1cc2ccccc2cc1O)c1ccccc1SSc1ccccc1C(=O)Nc1cc2ccccc2cc1O | 12.5 µg/mL (≈ 21.2 µM) | 6.25 µg/mL (≈ 10.6 µM) | 12.5 µg/mL (≈ 21.2 µM) |
| CCn1c2ccccc2c2cc(NC(=O)c3ccccc3SSc3ccccc3C(=O)Nc3ccc4c(c3)c3ccccc3n4CC)ccc21 | 1.56 µg/mL (≈ 2.26 µM) | 3.13 µg/mL (≈ 4.53 µM) | 1.56 µg/mL (≈ 2.26 µM) |
| O=c1c2ccccc2sn1CO | 6.25 µg/mL (≈ 34.5 µM) | 12.5 µg/mL (≈ 69 µM) | 12.5 µg/mL (≈ 69 µM) |
| CCCCCCCC(=O)OCCCNC(=O)c1ccccc1SSc1ccccc1C(=O)NCCCOC(=O)CCCCCCC | 0.39 µg/mL (≈ 0.58 µM) | 0.39 µg/mL (≈ 0.58 µM) | 0.78 µg/mL (≈ 1.16 µM) |
| O=C(Nc1ccc(S(=O)(=O)Nc2nc3ccccc3s2)cc1)c1ccccc1SSc1ccccc1C(=O)Nc1ccc(S(=O)(=O)Nc2nc3ccccc3s2)cc1 | 100 µg/mL (≈ 113 µM) | 50 µg/mL (≈ 56.7 µM) | 100 µg/mL (≈ 113 µM) |
| CN1CCCN(C(=O)c2ccccc2SSc2ccccc2C(=O)N2CCCN(C)CC2)CC1 | > 100 µg/mL | > 100 µg/mL | > 100 µg/mL |
| O=C(Nc1ccc(Br)c2ccccc12)c1ccccc1SSc1ccccc1C(=O)Nc1ccc(Br)c2ccccc12 | 12.5 µg/mL (≈ 17.5 µM) | 12.5 µg/mL (≈ 17.5 µM) | 12.5 µg/mL (≈ 17.5 µM) |
| O=C(c1ccccc1SSc1ccccc1C(=O)N1C(=O)c2ccccc2C1=O)N1C(=O)c2ccccc2C1=O | > 100 µg/mL | > 100 µg/mL | > 100 µg/mL |
| CCOc1ccc2nc(NC(=O)c3ccccc3SSc3ccccc3C(=O)Nc3nc4ccc(OCC)cc4s3)sc2c1 | > 100 µg/mL | > 100 µg/mL | > 100 µg/mL |
| CCCCCCCCCCCC(=O)OCCCNC(=O)c1ccccc1SSc1ccccc1C(=O)NCCCOC(=O)CCCCCCCCCCC | 0.78 µg/mL (≈ 0.993 µM) | 0.78 µg/mL (≈ 0.993 µM) | 0.78 µg/mL (≈ 0.993 µM) |
| CCC(CO)NC(=O)c1ccccc1SSc1ccccc1C(=O)NC(CC)CO (centres undefined) | 12.5 µg/mL (≈ 27.9 µM) | 12.5 µg/mL (≈ 27.9 µM) | 12.5 µg/mL (≈ 27.9 µM) |
| O=C(Nc1c([N+](=O)[O-])ccc2ccccc12)c1ccccc1SSc1ccccc1C(=O)Nc1c([N+](=O)[O-])ccc2ccccc12 | 50 µg/mL (≈ 77.3 µM) | 50 µg/mL (≈ 77.3 µM) | 50 µg/mL (≈ 77.3 µM) |
| O=C(c1ccccc1SSc1ccccc1C(=O)n1nnc2ccccc21)n1nnc2ccccc21 | > 100 µg/mL | > 100 µg/mL | > 100 µg/mL |
| O=c1c2ccccc2sn1CCO | 12.5 µg/mL (≈ 64 µM) | 12.5 µg/mL (≈ 64 µM) | 12.5 µg/mL (≈ 64 µM) |
| CCCCCCCCCCCC(=O)OCCNC(=O)c1ccccc1SSc1ccccc1C(=O)NCCOC(=O)CCCCCCCCCCC | 3.13 µg/mL (≈ 4.13 µM) | 3.13 µg/mL (≈ 4.13 µM) | 3.13 µg/mL (≈ 4.13 µM) |
| O=C(O)Cc1ccc(NC(=O)c2ccccc2SSc2ccccc2C(=O)Nc2ccc(CC(=O)O)cc2)cc1 | 100 µg/mL (≈ 175 µM) | 100 µg/mL (≈ 175 µM) | 100 µg/mL (≈ 175 µM) |

| SMILES | MIC [1] | MIC [2] | MIC [3] |
| --- | --- | --- | --- |
| O=C(NCc1ccco1)c1ccccc1SSc1ccccc1C(=O)NCc1ccco1 | 12.5 µg/mL (≈ 26.9 µM) | 12.5 µg/mL (≈ 26.9 µM) | 12.5 µg/mL (≈ 26.9 µM) |
| CCCCC(CC)CNC(=O)c1ccccc1SSc1ccccc1C(=O)NCC(CC)CCCC (centres undefined) | 1.56 µg/mL (≈ 2.95 µM) | 1.56 µg/mL (≈ 2.95 µM) | 1.56 µg/mL (≈ 2.95 µM) |
| CC(=O)OCCCNC(=O)c1ccccc1SSc1ccccc1C(=O)NCCCOC(C)=O | 6.25 µg/mL (≈ 12.4 µM) | 12.5 µg/mL (≈ 24.8 µM) | 12.5 µg/mL (≈ 24.8 µM) |
| O=C(Nc1ccc2ccccc2c1)c1ccccc1SSc1ccccc1C(=O)Nc1ccc2ccccc2c1 | 1.56 µg/mL (≈ 2.8 µM) | 1.56 µg/mL (≈ 2.8 µM) | 1.56 µg/mL (≈ 2.8 µM) |
| CCCCCCCCCCCCCCCCCCCC(=O)OCCCNC(=O)c1ccccc1SSc1ccccc1C(=O)NCCCOC(=O)CCCCCCCCCCCCCCCCCCC | > 100 µg/mL | > 100 µg/mL | > 100 µg/mL |
| CC(O)Cn1sc2ccccc2c1=O (centres undefined) | 12.5 µg/mL (≈ 59.7 µM) | 12.5 µg/mL (≈ 59.7 µM) | 12.5 µg/mL (≈ 59.7 µM) |
| CCCCCCCCCC(=O)OCCCNC(=O)c1ccccc1SSc1ccccc1C(=O)NCCCOC(=O)CCCCCCCCC | 0.39 µg/mL (≈ 0.535 µM) | 0.39 µg/mL (≈ 0.535 µM) | 0.78 µg/mL (≈ 1.07 µM) |
| CCNC(=O)OCCNC(=O)c1ccccc1SSc1ccccc1C(=O)NCCOC(=O)NCC | 25 µg/mL (≈ 46.8 µM) | 25 µg/mL (≈ 46.8 µM) | 25 µg/mL (≈ 46.8 µM) |
| CCOC(=O)c1ccc(NC(=O)c2ccccc2SSc2ccccc2C(=O)Nc2ccc(C(=O)OCC)cc2)cc1 | 3.13 µg/mL (≈ 5.21 µM) | 6.25 µg/mL (≈ 10.4 µM) | 3.13 µg/mL (≈ 5.21 µM) |
| CC(C)(CO)NC(=O)c1ccccc1SSc1ccccc1C(=O)NC(C)(C)CO | 6.25 µg/mL (≈ 13.9 µM) | 12.5 µg/mL (≈ 27.9 µM) | 12.5 µg/mL (≈ 27.9 µM) |
| CCCCCCCCCCNC(=O)c1ccccc1SSc1ccccc1C(=O)NCCCCCCCCCC | 3.13 µg/mL (≈ 5.35 µM) | 6.25 µg/mL (≈ 10.7 µM) | 3.13 µg/mL (≈ 5.35 µM) |
| CCCCCCC(=O)OCCCNC(=O)c1ccccc1SSc1ccccc1C(=O)NCCCOC(=O)CCCCCC | 1.56 µg/mL (≈ 2.42 µM) | 1.56 µg/mL (≈ 2.42 µM) | 1.56 µg/mL (≈ 2.42 µM) |
| NC(=O)c1ccccc1SSc1ccccc1C(N)=O | 6.25 µg/mL (≈ 20.5 µM) | 6.25 µg/mL (≈ 20.5 µM) | 6.25 µg/mL (≈ 20.5 µM) |
| O=C(Nc1ccc(Cl)c2ccccc12)c1ccccc1SSc1ccccc1C(=O)Nc1ccc(Cl)c2ccccc12 | 12.5 µg/mL (≈ 20 µM) | 12.5 µg/mL (≈ 20 µM) | 12.5 µg/mL (≈ 20 µM) |
| CCc1cc(CC)cc(NC(=O)c2ccccc2SSc2ccccc2C(=O)Nc2cc(CC)cc(CC)c2)c1 | > 100 µg/mL | > 100 µg/mL | > 100 µg/mL |
| CCCC(=O)OCCCNC(=O)c1ccccc1SSc1ccccc1C(=O)NCCCOC(=O)CCC | 3.13 µg/mL (≈ 5.58 µM) | 6.25 µg/mL (≈ 11.1 µM) | 6.25 µg/mL (≈ 11.1 µM) |
| O=C(Nc1cccc2ccc(O)cc12)c1ccccc1SSc1ccccc1C(=O)Nc1cccc2ccc(O)cc12 | 12.5 µg/mL (≈ 21.2 µM) | 50 µg/mL (≈ 84.9 µM) | 50 µg/mL (≈ 84.9 µM) |
| O=C(Nc1cccc2cccnc12)c1ccccc1SSc1ccccc1C(=O)Nc1cccc2cccnc12 | 12.5 µg/mL (≈ 22.4 µM) | 50 µg/mL (≈ 89.5 µM) | 50 µg/mL (≈ 89.5 µM) |
| CCC(O)CNC(=O)c1ccccc1SSc1ccccc1C(=O)NCC(O)CC (centres undefined) | 12.5 µg/mL (≈ 27.9 µM) | 12.5 µg/mL (≈ 27.9 µM) | 12.5 µg/mL (≈ 27.9 µM) |
| CC(O)CNC(=O)c1ccc(SSc2ccc(C(=O)NCC(C)O)cc2)cc1 (centres undefined) | > 100 µg/mL | > 100 µg/mL | > 100 µg/mL |
| CC[C@@H](CO)NCCN[C@@H](CC)CO [ETHAMBUTOL] | 0.78 µg/mL (≈ 3.82 µM) | 1.56 µg/mL (≈ 7.64 µM) | 0.78 µg/mL (≈ 3.82 µM) |
| NNC(=O)c1ccncc1 [ISONIAZID] | 100 µg/mL (≈ 729 µM) | 0.05 µg/mL (≈ 0.365 µM) | 0.05 µg/mL (≈ 0.365 µM) |
| NC[C@H]1O[C@H](O[C@H]2[C@H](O)[C@@H](O[C@H]3O[C@H](CO)[C@@H](O)[C@H](N)[C@H]3O)[C@H](N)C[C@@H]2N)[C@H](O)[C@@H](O)[C@@H]1O [KANAMYCIN] | 6.25 µg/mL (≈ 12.9 µM) | > 100 µg/mL | 6.25 µg/mL (≈ 12.9 µM) |
| CO[C@H]1/C=C/O[C@@]2(C)Oc3c(C)c(O)c4c(O)c(c(/C=N/N5CCN(C)CC5)c(O)c4c3C2=O)NC(=O)/C(C)=C\C=C\[C@H](C)[C@H](O)[C@@H](C)[C@@H](O)[C@@H](C)[C@H](OC(C)=O)[C@@H]1C [RIFAMPIN] | 0.025 µg/mL (≈ 0.0304 µM) | 0.05 µg/mL (≈ 0.0608 µM) | 0.025 µg/mL (≈ 0.0304 µM) |
